Laboratory results reported in patent publication US20230230698A1, “ANTIMICROBIAL CHOICE ALGORITHM FOR URINARY TRACT INFECTIONS” (Northwestern University, priority 2020, published 2023).
Like-named read-outs stand apart in the source and are kept apart here.

Assays:
[1] = test system: uropathogen; details: 2018, both inpatient and outpatient cultures; cited from earlier work
[2] = test system: uropathogen; test: Resistance in community acquired UTIs, uncomplicated and complicated combined; assay type: cell-based; details: 2018
Description: The prevalence of resistance for patients with complicated UTIs was compared to data from our previous publication for uncomplicated UTIs and available hospital data^17. The prevalence of resistance by ZIP code for the complicated UTI population was then compared between each antibiotic and to the distribution of prevalence by ZIP code for the uncomplicated population for the previous study, for CIP, SXT and NIT (the three antimicrobials evaluated in the previous study)^17.

[3] = test system: uropathogen; test: Urine culture antimicrobial susceptibility (Vitek 2), women outpatients with uncomplicated UTI; assay type: cell-based; details: for Overall prevalence of resistance / proportion of patients resistant: uncomplicated UTI; for Overall prevalence of resistance: 2011-2017 cohort, 9,455 positive cultures (>=10^3 CFU/mL), resistant or intermediate susceptibility; for proportion of patients resistant: 2018 testing cohort, 1,427 women, Chicago ZIP code; for proportion with culture susceptible, theoretical scenario of all patients receiving the drug / proportion with culture susceptible if everyone was prescribed the drug: 2018 cohort; for proportion with culture susceptible, theoretical scenario of all patients receiving the drug: 258 patients with prior microbiologic data; for proportion with culture susceptible, theoretical scenario of all patients being prescribed the drug: 2018 cohort, 1,169 patients without prior microbiologic data; for proportion with culture susceptible if everyone was prescribed the drug: all 1,427 patients
Description: Data were obtained from the Northwestern Medicine Enterprise Data Warehouse, which is a data integration warehouse designed for research and clinical operations. […] Cultures were included in analysis if positive (identified uropathogen≥10^3 colony forming units per milliliter (CFU/mL)) and antimicrobial susceptibilities reported for the dominant species. The colony count cutoff of ≥10^3 CFU/mL was used as it has been noted that low thresholds have appropriate diagnostic value for women with symptoms of a UTI.^5, 17, 18 The Northwestern Medicine Institutional Review Board approved this study (STU00207763).
All specimen collection and testing were done uniformly in accordance with Northwestern Medicine Guidelines. Isolation, colony count and identification testing were performed using Vitek 2 cards (bioMérieux).
For the 2011-2017 patients, outcomes of interest were uropathogen resistance (defined as resistant or intermediate susceptibility) to SXT, NIT and CIP. Covariates were patient demographics (age, race and patient's place of residence (ZIP code)) antimicrobial prescriptions within the past two years, diagnosis codes associated with current and past encounters, past urine culture results and department to which they presented. Risk factors were compared between patients who had resistant and sensitive cultures using two-sample t-tests (continuous variables) and chi-squared tests (categorical variables). Multivariate logistic regression models were used to investigate the association between risk factors and resistant cultures. Odds ratios (OR) were derived from these models to determine the probability of having a resistant culture with those factors.
The algorithms developed using the above-described cohort were then tested on the 2018 cohort. […] All analyses were done using R (version 3.5.2).

[4] = test system: uropathogen; test: Urine culture antimicrobial susceptibility (Vitek 2), outpatients with complicated UTI; assay type: cell-based; details: for Overall prevalence of resistance: complicated UTI outpatients, 2012-2018, 2,286 cultures (>=10^3 CFU/mL), resistant or intermediate susceptibility; for proportion of patients resistant: complicated UTI, 2017-2018 testing cohort, 646 patients, Chicago ZIP code
Description: Materials and Methods: We performed a retrospective, single-center, cross-sectional study of 2,286 outpatients with a diagnosed complicated UTI from 2012-2018. For patients with confirmed UTI (≥10^3 CFU/mL) with antimicrobial sensitivities, univariate analyses and multivariable regression models were used to determine odds ratios for predicting resistance to SXT, NIT, CIP, CF-1, and CF-3 for the 2012-2016 data. Antimicrobial choice algorithms were created using 2012-2016 results and tested on 2017-2018 data.
This study was approved and performed in accordance with the Northwestern Medicine Institutional Review Board (STU00207763). This is a retrospective cross-sectional study of patients aged 18 or older that submitted urine cultures as outpatients from 2012 to 2018 at any Northwestern Medicine site, which encompasses the greater Chicago area. Data were obtained from the Northwestern Medicine Enterprise Data Warehouse, which is a data integration warehouse designed for research and clinical operations. […] Patients and cultures were included only if they were linked to any ICD 9 or 10 diagnosis code in the previous two years that would have been associated with a complicated UTI^6. Patients were included exactly once based on their most recent culture, and all prior culture data were used as covariates. […] Cultures were included in analysis if positive (identified uropathogen≥10^3 colony forming units per milliliter (CFU/mL)) and antimicrobial susceptibilities were reported for the dominant species. All specimen collection and testing were done uniformly in accordance with Northwestern Medicine Guidelines. Isolation, colony count and identification testing were performed using Vitek 2 cards (bioMérieux).
For the 2012 to 2016 patients, outcomes of interest were uropathogen resistance (defined as resistant or intermediate susceptibility) to trimethoprim-sulfamethoxazole (SXT), ciprofloxacin (CIP), nitrofurantoin (NIT), first-generation cephalosporin (CF-1) and third-generation cephalosporin (CF-3). The resistance prevalence was also stratified by Chicago ZIP code for each antimicrobial.
The algorithms developed using the above-described cohort were then tested on the 2017-2018 cohort. […] Also, the predictive value of time between cultures and uropathogen concurrence between cultures was examined in this cohort^10,17. All analyses were done using R (version 3.5.2).

Compound	Overall prevalence of resistance [1]	resistance for community acquired UTIs, both uncomplicated and complicated [2]	Overall prevalence of resistance [3]	proportion of patients resistant [3]	resistance, complicated UTI ([4]; 2018, community acquired)	Overall prevalence of resistance [4]	proportion of patients resistant [4]	proportion with culture susceptible, theoretical scenario of all patients receiving the drug [3]	proportion with culture susceptible, theoretical scenario of all patients being prescribed the drug [3]	proportion with culture susceptible if everyone was prescribed the drug [3]
O=C(O)c1cn(C2CC2)c2cc(N3CCNCC3)c(F)cc2c1=O [CIP, ciprofloxacin]	25%	11.2%	10.3%	10.7%	16.2%	19.4%	18.4%			
O=C1CN(/N=C/c2ccc([N+](=O)[O-])o2)C(=O)N1 [NIT, nitrofurantoin]			12.1%	10.0%		18.9%	18.1%	93.8%	89.2%	90.0%
trimethoprim-sulfamethoxazole [SXT]			19.4%	22.0%		25.5%	25.9%	72.1%	79.3%	78.0%
